pEC50: −log10 of the molar value. Where a name gives a salt, the structure may show the parent alone. Read-outs that look alike come from different tables or passages of the source.
Tests used:
S1P1 = S1P1 (Homo sapiens, UniProt P21453); test: Receptor binding assay, [33P]sphingosine 1-phosphate competition, S1P1
Method: (§1) Membranes Preparation: Membranes were prepared from CHO cells expressing S1P1 or S1P3 for use in ligand and 35S-GTPγS binding studies. Cells were suspended in 50 mM TRIS, pH 7.4, 2 mM EDTA, 250 mM Sucrose (buffer A) and 1× Complete protease inhibitor cocktail (Roche), and disrupted at 4° C. by N2 decompression using a cell disruption bomb (Parr Instrument). Following centrifugation at 1000 RPM for 10 min at 4° C., the supernatant was diluted (2×) in buffer A and centrifuged again at 19000 RPM for 75 min at 4° C. The pellet was then suspended in 10 mM HEPES, pH 7.4, 1 mM EDTA, 250 mM Sucrose (Buffer B), and 1× Complete EDTA-free protease inhibitor cocktail and homogenized using a potter. Membranes were flash frozen in liquid N2 and stored at −80° C.
(§2) Receptor binding assay: [33P]sphingosine 1-phosphate (3000 Ci/mmol; American Radiolabeled Chemicals, Inc.) was added to test compounds in 20% DMSO by competition. Membranes and WGA SPA beads (GE Healthcare) were added to give a final volume of 100 μl in 96-well plates or 50 μl in 384-well plates with assay concentrations of 30 pM or 15 pM [33P]sphingosine 1-phosphate (respectively for S1P1 or S1P3), 50 mM HEPES, pH 7.5, 5 mM MgCl2, 100 mM NaCl, 0.4% fatty acid-free BSA, 1-5 μg/well of proteins in 96-well plates vs 0.6-1 μg/well of proteins in 384-well plates and 100 μg/well of WGA SPA beads in 96-well plates vs 75 μg/well of WGA SPA beads in 384-well plates. Binding was performed for 60 min at RT on a shaker and bound radioactivity was measured on a PerkinElmer 1450 MicroBeta counter. Triplicate samples were averaged and normalized as purcentage of inhibition relative to total binding (only DMSO in well) and non specific binding (1000-fold excess of unlabeled S1P). Binding data were analyzed using the GraphPad Prism program or Genedata software.

[1] = target: T1, human S1P1 Receptor fused to the green fluorescent protein (EGFP) (Homo sapiens, UniProt P21453); test: Internalization of S1P1 in S1P1-U2OS cells by cell imaging analysis; assay type: cell-based; details: 1 hour incubation, 384-well
T1 construct: host or cells: U2OS (human bone osteosarcoma epithelial cells), CMV promoter, geneticin selection
T1 sequence (P21453 with tags, fused parts or gaps): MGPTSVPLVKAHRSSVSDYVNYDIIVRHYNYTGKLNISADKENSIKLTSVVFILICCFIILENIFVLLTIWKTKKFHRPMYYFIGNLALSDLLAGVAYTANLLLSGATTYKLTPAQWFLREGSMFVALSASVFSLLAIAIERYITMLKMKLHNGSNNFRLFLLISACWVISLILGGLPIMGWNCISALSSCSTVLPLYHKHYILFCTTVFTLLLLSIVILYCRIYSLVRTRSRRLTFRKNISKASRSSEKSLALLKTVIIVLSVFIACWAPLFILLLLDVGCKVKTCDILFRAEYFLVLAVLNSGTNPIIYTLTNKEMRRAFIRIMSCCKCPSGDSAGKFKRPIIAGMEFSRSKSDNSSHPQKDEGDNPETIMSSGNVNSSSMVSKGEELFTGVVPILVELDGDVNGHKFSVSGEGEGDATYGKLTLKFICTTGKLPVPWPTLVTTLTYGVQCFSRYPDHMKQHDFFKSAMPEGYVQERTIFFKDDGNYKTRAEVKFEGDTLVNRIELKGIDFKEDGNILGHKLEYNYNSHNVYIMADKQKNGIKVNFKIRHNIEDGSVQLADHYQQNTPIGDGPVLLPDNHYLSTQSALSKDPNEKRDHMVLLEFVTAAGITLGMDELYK
Method: Cellular Functional Assays: Internalization of Sphingosine-1-Phosphate Receptor 1 (S1P1) in a Human Cell Line (U2OS) in a 384-Well Format Using a Cell Imaging Analysis.
The S1P1 internalization assay was performed in 384 well plates (Corning® 384 black with clear bottom 3712) using S1P1-U2OS cells from BioImage (C039A), a human epithelial cell line (Human Bone Osteosarcoma Epithelial Cells). These cells expressed the human S1P1 Receptor fused to the green fluorescent protein (EGFP). A standard CMV promoter (cytomegalovirus promoter) controls the expression of S1P1-EGFP and continuous expression was maintained by addition of geneticin to the culture medium.
S1P1 Receptor desensitization induced the internalization of the membrane-localized S1P1-EGFP fusion protein to endosomes, which can be monitored by cell imaging analysis.
The cells are plated in low serum medium (Dulbecco's Modified Eagle Medium (DMEM) with Glutamax-1 and high glucose, 1% Penicillin/Streptomycin, 1% Fetal Calf Serum (FCS), 0.5 mg/ml Geneticin) overnight.
The next day, S1P1-U2OS cells are incubated in 20 μl serum free medium (DMEM with Glutamax-1 and high glucose, 0.1% of fatty-acid free Bovin Serum Albumin (BSA), 10 mM, N′-2-Hydroxyethylpiperazine-N′-2 ethanesulphonic acid (HEPES) 1M) for 2 hours at 37° C./5% CO2.
The cells are then treated with 4 μl compounds/agonists (6×/3% DMSO) for a total volume of 24 μl, and plates are incubated for 1 hour at 37° C./5% CO2.
S1P1-U2OS cells are fixed with 25 μl Paraformaldehyde 8% and stained with Hoechst 33345 dye (1:1000) for 20 minutes.
They were then washed 3 times with Phosphate Buffered Saline (PBS) and plates are sealed.
The internalization of the receptor S1P1-EGFP is measured on Cellomics by calculating the “spot count per object” (“object” corresponds to nuclear and “spot” corresponds to S1P1-EGFP receptor). Internalization data were observed thanks to vHCS View and analyzed using Genedata® software.

S1P3 = S1P3 (Homo sapiens, UniProt Q99500); test: Receptor binding assay, [33P]sphingosine 1-phosphate competition, S1P3
S1P3, sequence (Q99500 whole entry, species assumed): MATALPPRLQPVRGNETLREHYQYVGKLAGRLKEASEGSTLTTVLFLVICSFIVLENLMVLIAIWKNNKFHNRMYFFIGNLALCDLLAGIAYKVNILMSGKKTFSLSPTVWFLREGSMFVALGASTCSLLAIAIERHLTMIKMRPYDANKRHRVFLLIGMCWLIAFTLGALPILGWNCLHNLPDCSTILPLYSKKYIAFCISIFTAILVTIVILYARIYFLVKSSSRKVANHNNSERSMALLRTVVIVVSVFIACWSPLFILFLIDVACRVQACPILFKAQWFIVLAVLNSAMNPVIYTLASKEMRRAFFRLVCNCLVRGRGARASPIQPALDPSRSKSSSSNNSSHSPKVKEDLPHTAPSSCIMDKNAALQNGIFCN
Method: as §1, §2

[2] = 96 well-plate, read-out: S1P1 binding IC50 (M) (96 well-plate)
[3] = 384 well-plate, read-out: S1P1 binding IC50 (M) (384 well-plate)
[4] = 96 well-plate, read-out: S1P3 binding IC50 (M) (96 well-plate)
[5] = 384 well-plate, read-out: S1P3 binding IC50 (M) (384 well-plate)

S1P1, sequence (P21453 whole entry, species assumed): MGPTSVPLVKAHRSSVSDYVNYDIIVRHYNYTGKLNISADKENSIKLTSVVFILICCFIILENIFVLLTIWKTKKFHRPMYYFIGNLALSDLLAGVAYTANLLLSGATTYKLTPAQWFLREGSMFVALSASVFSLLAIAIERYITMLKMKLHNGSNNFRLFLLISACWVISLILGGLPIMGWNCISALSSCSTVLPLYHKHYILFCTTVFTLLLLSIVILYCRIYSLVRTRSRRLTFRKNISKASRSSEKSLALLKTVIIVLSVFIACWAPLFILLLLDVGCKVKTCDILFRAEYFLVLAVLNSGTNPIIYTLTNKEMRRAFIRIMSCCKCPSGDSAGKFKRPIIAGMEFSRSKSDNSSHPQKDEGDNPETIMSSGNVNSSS

Row | IC50 (S1P1; [2]) [M] | pEC50 [1] | IC50 (S1P1; [3]) [M] | IC50 (S1P3; [4]) [M] | IC50 (S1P3; [5]) [M] | SMILES
1 | 1.35e-08 | 6.37 | – | – | – | COCc1cc(-c2nc(-c3cnc(N[C@H]4CCC[C@H]4C(=O)O)c(Cl)c3)no2)ccc1-c1ccccc1C (relative stereo) [Example 84, cis-2-(3-chloro-5-(5-(2-(methoxymethyl)-2′-methylbiphenyl-4-yl)-1,2,4-oxadiazol-3-yl)pyridin-2-ylamino)cyclopentanecarboxylic acid]
2 | 5.49e-08 | 6.51 | – | – | – | COCc1cc(-c2nc(-c3ccc(Cl)nc3)no2)ccc1-c1ccccc1C [Example 40, 2-chloro-5-{5-[2-(methoxymethyl)-2′-methylbiphenyl-4-yl]-1,2,4-oxadiazol-3-yl}pyridine]
3 | 6.72e-09 | 7.07 | 1.72e-08 | – | – | COCc1cc(-c2nc(-c3ccc(NCCCO)nc3)no2)ccc1-c1ccccc1C [Example 41, 3-[(5-{5-[2-(methoxymethyl)-2′-methylbiphenyl-4-yl]-1,2,4-oxadiazol-3-yl}pyridin-2-yl)amino]propan-1-ol]
4 | 2.89e-09 | 7.32 | – | – | – | COCc1cc(-c2nc(-c3cnc(N)c(Cl)c3)no2)ccc1N1CCCCC1C (stereo not shown) [Example 42, 3-chloro-5-{5-[3-(methoxymethyl)-4-(2-methylpiperidin-1-yl)phenyl]-1,2,4-oxadiazol-3-yl}pyridin-2-amine]
5 | 2.44e-09 | 7.47 | 4.1e-08 | 1.12e-05 | – | CCc1ccccc1-c1ccc(-c2nc(-c3cnc(N)c(Cl)c3)no2)cc1COC [Example 43, 3-chloro-5-{5-[2′-ethyl-2-(methoxymethyl)biphenyl-4-yl]-1,2,4-oxadiazol-3-yl}pyridin-2-amine]
6 | 4.22e-09 | 7.25 | 3.03e-08 | – | – | COCc1cc(-c2nc(-c3ccc(NCC(C)O)nc3)no2)ccc1-c1ccccc1C (stereo not shown) [Example 44, 1-[(5-{5-[2-(methoxymethyl)-2′-methylbiphenyl-4-yl]-1,2,4-oxadiazol-3-yl}pyridin-2-yl)amino]propan-2-ol]
7 | 2.88e-09 | 7.65 | 1.4e-08 | 9.31e-06 | 7.94e-06 | COCc1cc(-c2nc(-c3ccc(NCC(O)CO)nc3)no2)ccc1-c1ccccc1C (stereo not shown) [Example 45, 3-[(5-{5-[2-(methoxymethyl)-2′-methylbiphenyl-4-yl]-1,2,4-oxadiazol-3-yl}pyridin-2-yl)amino]propane-1,2-diol, hydrochloride salt]
8 | 3.31e-09 | 7.23 | 4.42e-08 | 7.21e-06 | – | COCc1cc(-c2nc(-c3cnc(N)c(Cl)c3)no2)ccc1-c1ccccc1F [Example 46, 3-chloro-5-{5-[2′-fluoro-2-(methoxymethyl)biphenyl-4-yl]-1,2,4-oxadiazol-3-yl}pyridin-2-amine]
9 | 3.15e-09 | 7.54 | – | 1.37e-06 | – | COCc1cc(-c2nc(-c3cnc(NCCC(=O)O)c(Cl)c3)no2)ccc1-c1ccccc1F [Example 48, N-(3-chloro-5-{5-[2′-fluoro-2-(methoxymethyl)biphenyl-4-yl]-1,2,4-oxadiazol-3-yl}pyridin-2-yl)-beta-alanine, hydrochloride salt]
10 | 3.71e-09 | 7.21 | 2.4e-08 | – | – | COCc1cc(-c2nc(-c3ccc(NCCO)nc3)no2)ccc1-c1ccccc1Cl [Example 49, 2-[(5-{5-[2′-chloro-2-(methoxymethyl)biphenyl-4-yl]-1,2,4-oxadiazol-3-yl}pyridin-2-yl)amino]ethanol]
11 | 1.58e-09 | 7.76 | 1.98e-08 | 5.82e-06 | 9.45e-06 | COCc1cc(-c2nc(-c3cnc(NCCC(=O)O)c(Cl)c3)no2)ccc1-c1ccccc1Cl [Example 50, N-(3-chloro-5-{5-[2′-chloro-2-(methoxymethyl)biphenyl-4-yl]-1,2,4-oxadiazol-3-yl}pyridin-2-yl)-beta-alanine, hydrochloride salt]
12 | 1.05e-08 | 7.07 | – | 1.79e-05 | 2e-05 | COCc1cc(-c2nc(-c3ccc(NCCCCO)nc3)no2)ccc1-c1ccccc1C [Example 51, 4-[(5-{5-[2-(methoxymethyl)-2′-methylbiphenyl-4-yl]-1,2,4-oxadiazol-3-yl}pyridin-2-yl)amino]butan-1-ol, hydrochloride salt]
13 | 5.28e-09 | 6.70 | 9.48e-09 | – | – | Cc1ccccc1-c1ccc(-c2nc(-c3cnc(NCCC(=O)O)c(Cl)c3)no2)cc1C(F)(F)F [Example 61, N-(3-chloro-5-{5-[2′-methyl-2-(trifluoromethyl)biphenyl-4-yl]-1,2,4-oxadiazol-3-yl}pyridin-2-yl)-beta-alanine, hydrochloride salt]
14 | 3.1e-09 | 7.04 | 7.54e-09 | – | – | COCc1cc(-c2nc(-c3cnc(NCCO)c(Cl)c3)no2)ccc1-c1ccccc1F [Example 62, 2-[(3-chloro-5-{5-[2′-fluoro-2-(methoxymethyl)biphenyl-4-yl]-1,2,4-oxadiazol-3-yl}pyridin-2-yl)amino]ethanol]
15 | – | 7.03 | 1.72e-08 | – | – | Cc1cc(-c2nc(-c3cnc(NCCC(=O)O)c(Cl)c3)no2)ccc1-c1ccccc1C(F)(F)F [Example 70, N-(3-chloro-5-{5-[2-methyl-2′-(trifluoromethyl)biphenyl-4-yl]-1,2,4-oxadiazol-3-yl}pyridin-2-yl)-beta-alanine, hydrochloride salt]
16 | – | 6.76 | 1.47e-08 | – | – | Cc1ccccc1-c1ccc(-c2nc(-c3cnc(NCCC(=O)O)c(Cl)c3)no2)cc1C [Example 73, N-{3-chloro-5-[5-(2,2′-dimethylbiphenyl-4-yl)-1,2,4-oxadiazol-3-yl]pyridin-2-yl}-beta-alanine, hydrochloride salt]
17 | – | 7.03 | 2.76e-08 | – | – | Cc1cc(-c2nc(-c3ccnc(CN(C)CC(=O)O)c3)no2)ccc1-c1ccccc1C(F)(F)F [Example 80, 2-(methyl((4-(5-(2-methyl-2′-(trifluoromethyl)biphenyl-4-yl)-1,2,4-oxadiazol-3-yl)pyridin-2-yl)methyl)amino)acetic acid]
18 | – | 6.77 | 2.5e-08 | – | – | Cc1cc(-c2nc(-c3ccc(CN(C)CC(=O)O)nc3)no2)ccc1-c1ccccc1C(F)(F)F [Example 81, 2-(methyl((5-(5-(2-methyl-2′-(trifluoromethyl)biphenyl-4-yl)-1,2,4-oxadiazol-3-yl)pyridin-2-yl)methyl)amino)acetic acid]
19 | – | 6.89 | 4.56e-08 | – | – | COCCCNc1ncc(-c2noc(-c3ccc(-c4ccccc4C)c(COC)c3)n2)cc1Cl [Example 82, 3-chloro-5-(5-(2-(methoxymethyl)-2′-methylbiphenyl-4-yl)-1,2,4-oxadiazol-3-yl)-N-(3-methoxypropyl)pyridin-2-amine]
20 | 2.9e-09 | 7.33 | – | – | – | COCc1cc(-c2nc(-c3cnc(NCCCO)c(Cl)c3)no2)ccc1-c1ccccc1C [Example 83, 3-(3-chloro-5-(5-(2-(methoxymethyl)-2′-methylbiphenyl-4-yl)-1,2,4-oxadiazol-3-yl)pyridin-2-ylamino)propan-1-ol]
